According to article PMC5356443, “Structural, mechanistic and functional insight into gliotoxin bis-thiomethylation in Aspergillus fumigatus” (Open Biology, 2017):

Key:
[1] = target: GtmA (gliotoxin S-methyltransferase, TmtA) (Aspergillus fumigatus, UniProt Q4X158); assay: RP-HPLC methyltransferase assay with purified enzyme, Km determination; type: biochemical
[2] = tested on: [H][C@]12C(=CC=C[C@@H]1O)C[C@@]1(S)C(=O)N(C)[C@@](S)(CO)C(=O)N12; assay: as above; type: biochemical, Aspergillus fumigatus; details: SAM

Sequence of GtmA (gliotoxin S-methyltransferase, TmtA) (Q4X158 whole entry): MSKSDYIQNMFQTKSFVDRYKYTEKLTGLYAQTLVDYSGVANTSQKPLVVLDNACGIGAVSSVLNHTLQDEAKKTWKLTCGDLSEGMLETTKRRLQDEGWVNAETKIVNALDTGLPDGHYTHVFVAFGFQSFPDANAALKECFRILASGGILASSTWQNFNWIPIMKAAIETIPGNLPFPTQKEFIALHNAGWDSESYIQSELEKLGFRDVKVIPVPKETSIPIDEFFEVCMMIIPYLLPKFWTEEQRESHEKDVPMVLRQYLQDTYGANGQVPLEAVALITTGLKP

Row | Compound | Km [1] [µM] | Km [2] [µM]
1 | CS[C@@]12CC3=CC=C[C@H](O)[C@H]3N1C(=O)[C@](S)(CO)N(C)C2=O [MmGT, monomethylgliotoxin] | 184 | 
2 | GtmA (gliotoxin S-methyltransferase, TmtA) (Aspergillus fumigatus Af293) |  | 38.62
